From patent US20260232658A1, “AZETIDINYL BENZOXAZOLE COMPOUNDS AND THEIR USE AS MER AND AXL INHIBITORS” (DONG-A ST CO., LTD., priority 2022, published 2026)

Tests used:
human MER (528-end) = molecular target: T1, human MER (528-end) (Homo sapiens, UniProt Q12866); experiment: HTRF kinase activity biochemical assay, MER; details: recombinant kinase, 10 uM ATP, 30 minutes pre-incubation; read-out: HTRF MERTK IC50;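 further: phosphorylation of a biotin-tagged tyrosine kinase substrate detected by Eu3+-cryptate antibody and streptavidin-XL665 time-resolved fluorescence, read after 1 h at room temperature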
T1 construct: human MER (528-end); purchased Carnabio, Japan
T1 sequence (Q12866 528-999 limits assumed): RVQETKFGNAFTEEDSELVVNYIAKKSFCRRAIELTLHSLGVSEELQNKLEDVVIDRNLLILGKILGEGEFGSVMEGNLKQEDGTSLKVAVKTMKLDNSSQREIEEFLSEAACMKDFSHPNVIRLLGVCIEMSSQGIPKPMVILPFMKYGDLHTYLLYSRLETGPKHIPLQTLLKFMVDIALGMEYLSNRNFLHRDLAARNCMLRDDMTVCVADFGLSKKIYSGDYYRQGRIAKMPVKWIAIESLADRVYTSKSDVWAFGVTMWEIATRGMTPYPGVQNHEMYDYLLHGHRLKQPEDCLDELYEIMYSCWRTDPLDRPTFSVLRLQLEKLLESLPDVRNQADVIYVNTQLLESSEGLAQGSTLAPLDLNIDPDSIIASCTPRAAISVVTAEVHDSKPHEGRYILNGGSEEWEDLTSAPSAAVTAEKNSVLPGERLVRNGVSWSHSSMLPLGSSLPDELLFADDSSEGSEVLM

human AXL (473-end) = molecular target: T2, human AXL (473-end) (Homo sapiens, UniProt P30530); experiment: HTRF kinase activity biochemical assay, AXL; details: recombinant kinase, 10 uM ATP, 30 minutes pre-incubation; read-out: HTRF AXL IC50;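 further: phosphorylation of a biotinylated tyrosine kinase substrate detected via Eu3+-cryptate anti-TK antibody and streptavidin-XL665, fluorescence read after a 1 h incubation at room temperature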
T2 construct: human AXL (473-end); purchased SignalChem, Canada
T2 sequence (P30530 473-894 limits assumed): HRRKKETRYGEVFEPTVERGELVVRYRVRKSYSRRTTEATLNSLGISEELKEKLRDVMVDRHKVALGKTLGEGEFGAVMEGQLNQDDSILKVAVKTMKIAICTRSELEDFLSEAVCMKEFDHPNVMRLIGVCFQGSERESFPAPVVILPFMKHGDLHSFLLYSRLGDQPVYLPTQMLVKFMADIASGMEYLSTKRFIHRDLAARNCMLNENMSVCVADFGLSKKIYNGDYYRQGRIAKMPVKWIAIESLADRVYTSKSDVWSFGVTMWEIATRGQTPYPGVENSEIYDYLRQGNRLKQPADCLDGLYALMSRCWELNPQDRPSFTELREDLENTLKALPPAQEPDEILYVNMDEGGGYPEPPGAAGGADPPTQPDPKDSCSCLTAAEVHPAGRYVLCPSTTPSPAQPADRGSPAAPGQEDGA

TYRO3 (455-end) = molecular target: T3, TYRO3 (455-end) (Homo sapiens, UniProt Q06418); experiment: HTRF kinase activity biochemical assay, TYRO3; details: recombinant kinase, 10 uM ATP, 30 minutes pre-incubation; read-out: HTRF TYRO IC50;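 further: biotinylated tyrosine kinase substrate phosphorylation detected via streptavidin-XL665 and Eu3+-cryptate anti-phospho antibody time-resolved fluorescence, read after 1 h detection at room temperature, 384-well format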
T3 construct: TYRO3 (455-end); purchased SignalChem, Canada
T3 sequence (Q06418 455-890 limits assumed): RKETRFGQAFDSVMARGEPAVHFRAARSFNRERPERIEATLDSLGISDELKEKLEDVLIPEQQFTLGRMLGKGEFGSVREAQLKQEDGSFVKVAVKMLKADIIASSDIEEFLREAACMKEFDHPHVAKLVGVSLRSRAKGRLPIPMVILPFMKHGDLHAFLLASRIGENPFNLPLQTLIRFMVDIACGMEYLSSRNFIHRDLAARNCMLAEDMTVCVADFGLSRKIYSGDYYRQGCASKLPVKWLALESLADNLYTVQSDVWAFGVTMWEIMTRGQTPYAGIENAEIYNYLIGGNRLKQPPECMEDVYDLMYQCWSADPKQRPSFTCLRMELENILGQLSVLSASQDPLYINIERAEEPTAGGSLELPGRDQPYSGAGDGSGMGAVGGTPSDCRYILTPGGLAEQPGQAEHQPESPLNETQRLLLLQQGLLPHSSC

SMILES | IC50 (human MER (528-end)) [nM] | IC50 (human AXL (473-end)) [nM] | IC50 (TYRO3 (455-end)) [nM]
Cn1cc(Nc2ncc(C3CN(c4nc5ccc(C6=CCOC6)cc5o4)C3)nc2C(N)=O)cn1 [Example 15A, 6-{1-[6-(2,5-dihydrofuran-3-yl)-1,3-benzoxazol-2-yl]azetidin-3-yl}-3-[(1-methyl-1H-pyrazol-4-yl)amino]pyrazine-2-carboxamide] | 2 | 5 | 74
Cn1cc(Nc2ncc(C3CN(c4nc5ccc(C(=O)N6CCC[C@@H]6C(C)(C)O)cc5o4)C3)nc2C(N)=O)cn1 [Example 75, 6-(1-{6-[(2R)-2-(2-hydroxypropan-2-yl)pyrrolidine-1-carbonyl]-1,3-benzoxazol-2-yl}azetidin-3-yl)-3-[(1-methyl-1H-pyrazol-4-yl)amino]pyrazine-2-carboxamide] | < 1 | 3 | 65
Cn1cc(Nc2ncc(C3CN(c4nc5ccc(OCC6(O)COC6)cc5o4)C3)nc2C(N)=O)cn1 [Example 57, 6-(1-{6-[(3-hydroxyoxetan-3-yl)methoxy]-1,3-benzoxazol-2-yl}azetidin-3-yl)-3-[(1-methyl-1H-pyrazol-4-yl)amino]pyrazine-2-carboxamide] | 7 | 8 | 2310
Cn1cc(Nc2ncc(C3CN(c4nc5ccc(OCc6cn[nH]c6)cc5o4)C3)nc2C(N)=O)cn1 [Example 93, 3-[(1-methyl-1H-pyrazol-4-yl)amino]-6-(1-{6-[(1H-pyrazol-4-yl)methoxy]-1,3-benzoxazol-2-yl}azetidin-3-yl)pyrazine-2-carboxamide] | < 1 | 2 | 44
Cn1cc(Nc2ccc(C3CN(c4nc5ccc(OCC(C)(C)OP(=O)(O)O)cc5o4)C3)nc2C(N)=O)cn1 [Example 106, 1-{[2-(3-{6-carbamoyl-5-[(1-methyl-1H-pyrazol-4-yl)amino]pyridin-2-yl}azetidin-1-yl)-1,3-benzoxazol-6-yl]oxy}-2-methylpropan-2-yl dihydrogen phosphate] | 1.8 | 6 | 1070
Cn1cc(Nc2ncc(C3CN(c4nc5ccc(C(=O)N6CCC[C@@H]6CO)cc5o4)C3)nc2C(N)=O)cn1 [Example 59, 6-(1-{6-[(2R)-2-(hydroxymethyl)pyrrolidine-1-carbonyl]-1,3-benzoxazol-2-yl}azetidin-3-yl)-3-[(1-methyl-1H-pyrazol-4-yl)amino]pyrazine-2-carboxamide] | < 1 | 2 | 30
CN(C)C(=O)COc1ccc2nc(N3CC(c4ccc(Nc5cnn(C)c5)c(C(N)=O)n4)C3)oc2c1 [Example 83, 6-(1-{6-[2-(dimethylamino)-2-oxoethoxy]-1,3-benzoxazol-2-yl}azetidin-3-yl)-3-[(1-methyl-1H-pyrazol-4-yl)amino]pyridine-2-carboxamide] | 4 | 26 | 6800
Cn1cc(Nc2ccc(C3CN(c4nc5ccc(Oc6cccnn6)cc5o4)C3)nc2C(N)=O)cn1 [Example 103, 3-[(1-methyl-1H-pyrazol-4-yl)amino]-6-(1-{6-[(pyridazin-3-yl)oxy]-1,3-benzoxazol-2-yl}azetidin-3-yl)pyridine-2-carboxamide] | < 1 | 3 | 710
Cn1cc(COc2ccc3nc(N4CC(c5cnc(Nc6cnn(C)c6)c(C(N)=O)n5)C4)oc3c2)cn1 [Example 97, 3-[(1-methyl-1H-pyrazol-4-yl)amino]-6-(1-{6-[(1-methyl-1H-pyrazol-4-yl)methoxy]-1,3-benzoxazol-2-yl}azetidin-3-yl)pyrazine-2-carboxamide] | 1 | 4 | 150
Cn1cc(Nc2ncc(C3CN(c4nc5ccc(-c6cnn(CCO)c6)cc5o4)C3)nc2C(N)=O)cn1 [Example 90, 6-(1-{6-[1-(2-hydroxyethyl)-1H-pyrazol-4-yl]-1,3-benzoxazol-2-yl}azetidin-3-yl)-3-[(1-methyl-1H-pyrazol-4-yl)amino]pyrazine-2-carboxamide] | 2 | 4 | 880
Cn1cc(Nc2ccc(C3CN(c4nc5ccc(OCCC(C)(C)O)cc5o4)C3)nc2C(N)=O)cn1 [Example 84, 6-{1-[6-(3-hydroxy-3-methylbutoxy)-1,3-benzoxazol-2-yl]azetidin-3-yl}-3-[(1-methyl-1H-pyrazol-4-yl)amino]pyridine-2-carboxamide] | 2 | 7 | 1370
Cn1cnc(COc2ccc3nc(N4CC(c5cnc(Nc6cnn(C)c6)c(C(N)=O)n5)C4)oc3c2)c1 [Example 98, 6-(1-{6-[(1-methyl-1H-imidazol-4-yl)methoxy]-1,3-benzoxazol-2-yl}azetidin-3-yl)-3-[(1-methyl-1H-pyrazol-4-yl)amino]pyrazine-2-carboxamide] | 1.1 | 7 | 1280
Cn1cc(Nc2ncc(C3CN(c4nc5ccc(C6=CCOCC6)cc5o4)C3)nc2C(N)=O)cn1 [Example 11, 6-{1-[6-(3,6-dihydro-2H-pyran-4-yl)-1,3-benzoxazol-2-yl]azetidin-3-yl}-3-[(1-methyl-1H-pyrazol-4-yl)amino]pyrazine-2-carboxamide] | 1 | 2 | 280
COC[C@H]1CCCN1C(=O)Cc1ccc2nc(N3CC(c4cnc(Nc5cnn(C)c5)c(C(N)=O)n4)C3)oc2c1 [Example 71, 6-[1-(6-{2-[(2R)-2-(methoxymethyl)pyrrolidin-1-yl]-2-oxoethyl}-1,3-benzoxazol-2-yl)azetidin-3-yl]-3-[(1-methyl-1H-pyrazol-4-yl)amino]pyrazine-2-carboxamide] | 2 | 4 | 3730
Cn1cc(Nc2ncc(C3CN(c4nc5ccc(-c6cnn(C)c6)cc5o4)C3)nc2C(N)=O)cn1 [Example 92, 3-[(1-methyl-1H-pyrazol-4-yl)amino]-6-{1-[6-(1-methyl-1H-pyrazol-4-yl)-1,3-benzoxazol-2-yl]azetidin-3-yl}pyrazine-2-carboxamide] | < 1 | 3 | 80
Cn1cc(Nc2ncc(C3CN(c4nc5ccc(Br)cc5o4)C3)nc2C(N)=O)cn1 [Example 6A, 6-[1-(6-bromo-1,3-benzoxazol-2-yl)azetidin-3-yl]-3-[(1-methyl-1H-pyrazol-4-yl)amino]pyrazine-2-carboxamide] | < 1 | 4 | 60
Cn1cc(Nc2ncc(C3CN(c4nc5ccc(C(=O)N6CCOCC6)cc5o4)C3)nc2C(N)=O)cn1 [Example 46, 3-[(1-methyl-1H-pyrazol-4-yl)amino]-6-{1-[6-(morpholine-4-carbonyl)-1,3-benzoxazol-2-yl]azetidin-3-yl}pyrazine-2-carboxamide] | 3 | 9 | 9
Cn1cc(Nc2ccc(C3CN(c4nc5ccc(O)cc5o4)C3)nc2C(N)=O)cn1 [Example 84A, 6-[1-(6-hydroxy-1,3-benzoxazol-2-yl)azetidin-3-yl]-3-[(1-methyl-1H-pyrazol-4-yl)amino]pyridine-2-carboxamide] | 14 | 33 | 2070
C[Si](C)(C)CCOCn1cc(Nc2ncc(C3CN(c4nc5ccc(O)cc5o4)C3)nc2C(N)=O)cn1 [Example 0, 6-[1-(6-hydroxy-1,3-benzoxazol-2-yl)azetidin-3-yl]-3-[(1-{[2-(trimethylsilyl)ethoxy]methyl}-1H-pyrazol-4-yl)amino]pyrazine-2-carboxamide] | 34 | 60 | 2680
